# Assay results published in patent US20070117743A1, “New antitumoral compounds” (priority 2003, published 2007).
# Read-outs that look alike come from different tables or passages of the source. Where a SMILES comes first, the peptide text is derived from it. Bridges are numbered along the chain shown (N, C = ends). [ ]: non-standard residue; d: D form. The star is where a group is joined. d(aIle) = CC[C@H](C)[C@@H](N)C(=O)O; d(aThr) = C[C@@H](O)[C@@H](N)C(=O)O; Hexanoyl(5-Me) = CC(C)CCCC(=O)*; Orn = NCCC[C@H](N)C(=O)O; Aib = CC(C)(N)C(=O)O
# How the values were obtained:
# Type in all cases: cell-based, human
# DU-145 = assay: SRB colorimetric assay of cell growth and viability, DU-145; conditions: 48 hours exposure
# K-562 = assay: SRB colorimetric assay of cell growth and viability, K-562; conditions: 48 hours exposure, SRB; for CC50: read-out: LC50 K-562
# HT-29 = assay: SRB colorimetric assay of cell growth and viability, HT-29; conditions: 48 hours exposure, SRB; for GI50: read-out: GI50 HT-29; for CC50: read-out: LC50 HT-29
# LoVo-Dox = assay: SRB colorimetric assay of cell growth and viability, LoVo-Dox; conditions: 48 hours exposure, SRB; for CC50: read-out: LC50 LOVO-DOX
# In short: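 After 48 hours continuous exposure to samples spanning 10 to 10^−8 μg/mL, biomass was quantified by sulforhodamine B staining of TCA-fixed cells (OD 490 nm). Cells, 5×10^3 per well in RPMI 1640 10% FBS, had attached 18 hours first; GI, TGI and LC derived from triplicate wells.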
# HeLa-APL = assay: SRB colorimetric assay of cell growth and viability, HeLa-APL; conditions: 48 hours exposure, SRB; for CC50: read-out: LC50 HELA-APL
# SK-BR-3 = assay: SRB colorimetric assay of cell growth and viability, SK-BR-3; conditions: 48 hours exposure
# LoVo = assay: SRB colorimetric assay of cell growth and viability, LoVo; conditions: 48 hours exposure, SRB; for CC50: read-out: LC50 LOVO
# IGROV-ET = assay: SRB colorimetric assay of cell growth and viability, IGROV-ET; conditions: 48 hours exposure; for CC50: read-out: LC50 IGROV-ET
# LNCaP = assay: SRB colorimetric assay of cell growth and viability, LNCaP; conditions: 48 hours exposure; for CC50: read-out: LC50 LN-caP; for GI50: read-out: GI50 LN-caP
# HeLa = assay: SRB colorimetric assay of cell growth and viability, HeLa; conditions: 48 hours exposure, SRB; for CC50: read-out: LC50 HELA
# SK-MEL-28 = assay: SRB colorimetric assay of cell growth and viability, SK-MEL-28; conditions: 48 hours exposure; for CC50: read-out: LC50 MEL-28
# PANC-1 = assay: SRB colorimetric assay of cell growth and viability, PANC-1; conditions: 48 hours exposure, SRB; for CC50: read-out: LC50 PANC-1
# A-549 = assay: SRB colorimetric assay of cell growth and viability, A-549; conditions: 48 hours exposure, SRB; for GI50: read-out: GI50 A-549; for CC50: read-out: LC50 A-549
# IGROV-1 = assay: SRB colorimetric assay of cell growth and viability, IGROV-1; conditions: 48 hours exposure
compound,measurement,setting,value
"CC[C@H](C)[C@@H](NC(=O)[C@H](CCCN)NC(=O)[C@H]1CCCN1C(=O)[C@H](NC(=O)[C@@H](NC(=O)[C@@H](NC(=O)[C@H](NC(=O)CCCC(C)C)C(C)C)[C@@H](C)O)C(C)C)C(C)C)C(=O)N[C@H]1C(=O)N[C@H]([C@@H](C)CC)C(=O)N[C@H](C(C)C)C(=O)N[C@@H](Cc2ccccc2)C(=O)NC(C)(C)C(=O)N[C@@H](C(C)C)C(=O)O[C@@H]1C [Compound 66, [Aib^2]-KF] ({Hexanoyl(5-Me)}-[dV]TV[dV][dP][Orn][d(aIle)][d(aThr)][d(aIle)][dV]F[Aib]V; ester 8-C)",GI50,DU-145,1.36 µM
same,TGI DU-145,DU-145,2.73E−06 Molar
same,LC50 (concentration causing 50% net cell kill),DU-145; SRB,5.45 µM
same,GI50,K-562,≥ 6.76 µM
same,TGI K-562,K-562,6.76E−06 Molar
same,CC50,K-562,≥ 6.76 µM
same,TGI HT-29,HT-29,2.54E−06 Molar
same,GI50,HT-29,1.28 µM
same,CC50,HT-29,5.06 µM
same,GI50,LoVo-Dox,1.07 µM
same,TGI LOVO-DOX,LoVo-Dox,2.26E−06 Molar
same,CC50,LoVo-Dox,4.8 µM
same,GI50,HeLa-APL,3.41 µM
same,TGI HELA-APL,HeLa-APL,6.76E−06 Molar
same,CC50,HeLa-APL,≥ 6.76 µM
same,GI50,SK-BR-3,1.49 µM
same,TGI SK-BR-3,SK-BR-3,2.67E−06 Molar
same,LC50,SK-BR-3; SRB,4.77 µM
same,GI50,LoVo,1.3 µM
same,TGI LOVO,LoVo,2.47E−06 Molar
same,CC50,LoVo,4.71 µM
same,GI50,IGROV-ET,1.21 µM
same,TGI IGROV-ET,IGROV-ET,2.43E−06 Molar
same,CC50,IGROV-ET; SRB,4.89 µM
same,TGI LN-caP,LNCaP,6.76E−06 Molar
same,CC50,LNCaP; SRB,≥ 6.76 µM
same,GI50,LNCaP,4.63 µM
same,GI50,HeLa,3.17 µM
same,TGI HELA,HeLa,6.76E−06 Molar
same,CC50,HeLa,≥ 6.76 µM
same,GI50,SK-MEL-28,2.24 µM
same,TGI MEL-28,SK-MEL-28,6.14E−06 Molar
same,CC50,SK-MEL-28; SRB,≥ 6.76 µM
same,GI50,PANC-1,≥ 6.76 µM
same,TGI PANC-1,PANC-1,6.76E−06 Molar
same,CC50,PANC-1,≥ 6.76 µM
same,TGI A-549,A-549,6.76E−06 Molar
same,GI50,A-549,4.96 µM
same,CC50,A-549,≥ 6.76 µM
same,GI50,IGROV-1,1.57 µM
same,TGI IGROV,IGROV-1,2.82E−06 Molar
same,LC50 (concentration causing 50% net cell killing),IGROV-1; SRB,5.05 µM
"C/C=C1\NC(=O)[C@H](Cc2ccccc2)NC(=O)[C@@H](C(C)C)NC(=O)[C@@H]([C@@H](C)CC)NC(=O)[C@H](NC(=O)[C@H](NC(=O)[C@H](CCCN)NC(=O)[C@H]2CCCN2C(=O)[C@H](NC(=O)[C@@H](NC(=O)[C@@H](NC(=O)[C@H](NC(=O)CC[C@@H](C)[C@H]2CC[C@H]3[C@@H]4CC[C@@H]5C[C@H](OC(=O)C(F)(F)F)CC[C@]5(C)[C@H]4CC[C@]23C)C(C)C)[C@@H](C)OC(=O)C(F)(F)F)C(C)C)C(C)C)[C@@H](C)CC)[C@@H](C)OC(=O)[C@H](C(C)C)NC1=O [Compound 97, [Thr(OTfa)^12, Lit(OTfa)^14]-Kahalalide F]",GI50,DU-145; SRB,0.517 µM
same,LC50 (concentration causing 50% net cell kill),DU-145; SRB,2.81 µM
same,TGI DU-145,DU-145; SRB,1.21E−06 Molar
same,GI50,K-562,1.28 µM
same,TGI K-562,K-562,2.34E−06 Molar
same,CC50,K-562,4.27 µM
same,TGI HT-29,HT-29,3.36E−07 Molar
same,GI50,HT-29,0.176 µM
same,CC50,HT-29,1.19 µM
same,GI50,LoVo-Dox,0.186 µM
same,TGI LOVO-DOX,LoVo-Dox,3.96E−07 Molar
same,CC50,LoVo-Dox,4.12 µM
same,GI50,HeLa-APL,0.751 µM
same,TGI HELA-APL,HeLa-APL,1.61E−06 Molar
same,CC50,HeLa-APL,3.44 µM
same,GI50,SK-BR-3; SRB,0.0455 µM
same,LC50,SK-BR-3; SRB,0.324 µM
same,TGI SK-BR-3,SK-BR-3; SRB,1.17E−07 Molar
same,GI50,LoVo,0.128 µM
same,TGI LOVO,LoVo,3.01E−07 Molar
same,CC50,LoVo,1.09 µM
same,GI50,IGROV-ET; SRB,0.232 µM
same,TGI IGROV-ET,IGROV-ET; SRB,4.57E−07 Molar
same,CC50,IGROV-ET; SRB,2.38 µM
same,TGI LN-caP,LNCaP; SRB,1.81E−06 Molar
same,GI50,LNCaP; SRB,0.866 µM
same,CC50,LNCaP; SRB,3.77 µM
same,GI50,HeLa,0.809 µM
same,TGI HELA,HeLa,1.78E−06 Molar
same,CC50,HeLa,3.89 µM
same,GI50,SK-MEL-28; SRB,0.128 µM
same,TGI MEL-28,SK-MEL-28; SRB,2.21E−07 Molar
same,CC50,SK-MEL-28; SRB,0.384 µM
same,GI50,PANC-1,2.64 µM
same,TGI PANC-1,PANC-1,5.22E−06 Molar
same,CC50,PANC-1,5.22 µM
same,TGI A-549,A-549,1.96E−06 Molar
same,GI50,A-549,1.05 µM
same,CC50,A-549,3.64 µM
same,GI50,IGROV-1; SRB,0.244 µM
same,LC50 (concentration causing 50% net cell killing),IGROV-1; SRB,2.2 µM
same,TGI IGROV,IGROV-1; SRB,4.64E−07 Molar
